One experiment concerns the target T1, human GLP-2R (Homo sapiens, UniProt O95838).
T1 construct: host or cells: COS-7
T1 sequence (O95838 1-553): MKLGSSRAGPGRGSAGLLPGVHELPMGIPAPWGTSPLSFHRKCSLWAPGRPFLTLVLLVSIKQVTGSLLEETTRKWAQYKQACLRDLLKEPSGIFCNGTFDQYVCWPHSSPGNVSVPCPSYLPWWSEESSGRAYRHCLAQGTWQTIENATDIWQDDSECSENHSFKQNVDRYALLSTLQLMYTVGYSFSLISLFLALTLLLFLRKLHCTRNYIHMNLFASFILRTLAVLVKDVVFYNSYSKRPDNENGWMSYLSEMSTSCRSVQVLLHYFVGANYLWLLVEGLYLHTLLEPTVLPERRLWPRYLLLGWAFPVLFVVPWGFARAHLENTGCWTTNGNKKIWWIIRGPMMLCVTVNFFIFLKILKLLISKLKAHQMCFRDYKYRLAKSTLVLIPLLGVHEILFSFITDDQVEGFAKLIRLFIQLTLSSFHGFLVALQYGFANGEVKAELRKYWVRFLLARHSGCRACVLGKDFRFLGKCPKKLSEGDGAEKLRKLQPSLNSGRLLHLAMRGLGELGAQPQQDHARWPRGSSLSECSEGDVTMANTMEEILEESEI
Briefly: HitHunter cAMP assay in transiently transfected COS-7 cells, human GLP-2R.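 Further: cells kept 30 min at 37 °C in buffer with 1 mM IBMX, then given ligand for another 30 min at 37 °C before cAMP readout.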 Type of experiment: cell-based. Conditions: Emax normalized to highest concentration of endogenous ligand; Table 2. In general terms: cAMP levels reflect the balance of adenylyl cyclase and phosphodiesterase activity.

Another experiment deals with T2, human GLP-1R (Homo sapiens, UniProt P43220).
T2 construct: host or cells: COS-7
The experiment is described as follows: HitHunter cAMP assay in transiently transfected COS-7 cells, human GLP-1R. The format is cell-based. Conditions: Emax normalized to highest concentration of endogenous ligand; Table 3. The procedure: (§1) The next day the assay was initiated by washing with HEPES buffered saline (HBS) and followed by an incubation step with assay buffer (HBS added 1 mM isobutyl-1-methylxanthine (IBMX)) for 30 min at 37° C. The ligands were then added and incubated for an additional 30 min at 37° C. After ligand incubation, the HitHunter® CAMP assay (Eurofins DiscoverX, Fremont, […] USA) was carried out according to the manufacturer's instructions. Luminescence was measured by PerkinElmer™ EnVision 2014 Multilabel Reader (PerkinElmer, Waltham, MA). The potencies (EC50 values) were determined by nonlinear regression using GraphPad Prism 9 (San Diego, California, USA). Sigmoid curves were fitted logistically. The efficacies (Emax values) were determined by normalization to the highest concentration applied of the endogenous ligand for each receptor.

In another experiment the target is T3, rat GIPR (Rattus norvegicus, UniProt P43219).
T3 construct: expressed in transfected cells; host or cells: COS-7
T3 sequence (P43219 19-455): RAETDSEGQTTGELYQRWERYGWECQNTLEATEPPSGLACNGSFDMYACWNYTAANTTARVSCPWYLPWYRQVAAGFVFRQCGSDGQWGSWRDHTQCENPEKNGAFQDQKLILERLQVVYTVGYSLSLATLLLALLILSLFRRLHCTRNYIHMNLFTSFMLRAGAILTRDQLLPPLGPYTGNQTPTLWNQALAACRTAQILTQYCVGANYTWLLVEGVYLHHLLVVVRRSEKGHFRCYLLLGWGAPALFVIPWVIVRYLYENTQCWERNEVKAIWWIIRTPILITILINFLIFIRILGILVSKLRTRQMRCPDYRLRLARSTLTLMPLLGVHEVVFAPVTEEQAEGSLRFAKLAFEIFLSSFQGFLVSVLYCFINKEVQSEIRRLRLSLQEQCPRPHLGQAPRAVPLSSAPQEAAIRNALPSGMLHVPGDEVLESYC
Briefly: HitHunter cAMP assay in transiently transfected COS-7 cells, rat GIPR. Type of experiment: cell-based. Conditions: Emax normalized to highest concentration of endogenous ligand. The method, then:
as §1

A further experiment addresses T4, rat GLP-2R (Rattus norvegicus, UniProt Q9Z0W0).
T4 construct: expressed in transfected cells; host or cells: COS-7
T4 sequence (Q9Z0W0 1-550): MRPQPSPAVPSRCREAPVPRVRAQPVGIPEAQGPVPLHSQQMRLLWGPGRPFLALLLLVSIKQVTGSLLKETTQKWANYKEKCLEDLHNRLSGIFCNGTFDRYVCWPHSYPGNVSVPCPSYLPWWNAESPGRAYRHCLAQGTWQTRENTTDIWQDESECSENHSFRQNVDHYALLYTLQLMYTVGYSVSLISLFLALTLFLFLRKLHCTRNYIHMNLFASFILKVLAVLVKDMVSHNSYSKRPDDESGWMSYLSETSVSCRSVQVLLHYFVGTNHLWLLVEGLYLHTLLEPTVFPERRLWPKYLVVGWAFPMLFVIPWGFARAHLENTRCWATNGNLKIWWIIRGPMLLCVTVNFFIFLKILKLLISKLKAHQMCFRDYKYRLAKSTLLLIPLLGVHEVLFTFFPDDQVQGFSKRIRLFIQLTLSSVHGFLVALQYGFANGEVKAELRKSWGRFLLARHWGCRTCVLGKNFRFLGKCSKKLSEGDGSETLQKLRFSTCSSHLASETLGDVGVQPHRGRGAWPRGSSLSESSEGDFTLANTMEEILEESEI
Briefly: HitHunter cAMP assay in transiently transfected COS-7 cells, rat GLP-2R. The format is cell-based. Conditions: Emax normalized to highest concentration of endogenous ligand. The procedure:
as §1

In a further experiment the test system is macaque GIPR. Briefly: HitHunter cAMP assay in transiently transfected COS-7 cells, macaque GIPR. As to conditions: for maGIPR Efficacy (%): Emax normalized to highest concentration of the endogenous ligand, COS-7 cells; for maGIPR pEC50: cAMP, transiently transfected COS-7 cells. Type of experiment: cell-based. The procedure:
as §1

For experiment [1], the target named is T5, human GIPR (Homo sapiens, UniProt P48546).
T5 sequence (P48546 22-466): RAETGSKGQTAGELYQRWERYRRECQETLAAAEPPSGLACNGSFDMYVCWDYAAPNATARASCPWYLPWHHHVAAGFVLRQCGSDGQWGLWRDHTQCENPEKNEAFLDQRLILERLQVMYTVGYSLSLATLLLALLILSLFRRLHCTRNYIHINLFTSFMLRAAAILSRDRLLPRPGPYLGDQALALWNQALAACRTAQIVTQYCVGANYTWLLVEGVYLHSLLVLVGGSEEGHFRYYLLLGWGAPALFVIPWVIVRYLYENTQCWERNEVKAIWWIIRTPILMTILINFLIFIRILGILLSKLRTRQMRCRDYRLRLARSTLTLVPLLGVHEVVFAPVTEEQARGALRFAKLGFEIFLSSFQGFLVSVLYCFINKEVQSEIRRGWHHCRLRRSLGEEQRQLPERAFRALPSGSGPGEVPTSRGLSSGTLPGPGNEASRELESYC
Type of experiment: cell-based. Set-up: host or cells: COS-7. As to conditions: Emax normalized to highest concentration of endogenous ligand; Table 2.

A further experiment deals with T6, human SNAP-GIPR (Homo sapiens, UniProt P48546).
T6 construct: host or cells: HEK293A
T6 sequence (P48546 22-466): T5 sequence (P48546 22-466)
The format is cell-based. Set-up: AUC ± SD: unit not given beside the values. As to conditions: for Emax ± SD (%): GIPR internalization, NA = no activity.

Experiment [2] concerns the target T5, human GIPR. Type of experiment: cell-based. Further details: host or cells: HEK293. As to conditions: beta-arrestin 2 recruitment; for AUC ± SD: AUC of sigmoid curves up to 100 nM; for Emax ± SD (%): normalized to highest concentration of GIP, NA = no activity. (Recruitment of arrestin is a read-out of receptor activation apart from second messengers.)
Experimental: HEK293 cells were cultured at 10% CO2 and 37° C. in DMEM-GlutaMAX™-I supplemented with 10% FBS, 180 units/mL penicillin and 45 g/mL streptomycin. These cells were transfected using PEI for the beta-arrestin recruitment assay as described in detail in (van der Velden et al., 2021).
HEK293 cells were transiently transfected with human GIPR, the donor Rluc8-Arrestin-3-Sp1 (beta-arrestin 2 recruitment), the acceptor mem-linker-citrine-SH3, and the GPCR kinase 2 (GRK2). Two days following transfection, the cells were washed with PBS and resuspended in PBS with 5 mM glucose. Then, 85 μL of the cell suspension solution was added to each well of a white 96-well plate followed by the addition of PBS with 5 μM coelenterazine-h. Following 10 min incubation, increasing concentrations of ligands were added and incubated for an additional 30 min. Luminescence was measured with the Berthold Technologies Mithras Multilabel Reader (Rluc8 at 485±40 nm and YFP at 530±25 nm). The potencies (EC50 values) were determined by nonlinear regression using GraphPad Prism 9 (San Diego, California, USA). Sigmoid curves were fitted logistically. The efficacies (Emax values) were determined by normalization to the highest concentration applied of the endogenous ligand (GIP) for the GIPR.
Experiment [3] concerns bone turnover markers CTX (resorption) and P1NP (formation). The experiment is described as follows: bone turnover markers CTX and P1NP in rats after SC injection. Type of experiment: in vivo, rat. The method, then: Sprague Dawley female rats, age 10 w (Janvier Labs, France), n=4, were fasted from 06:00 until after final blood sample. A baseline blood sample was taken just before subcutaneous administration of compound at 10:00. Compounds were dissolved in 50 mM phosphate buffer, pH 7.5+0.1% Haemaccel. Dose: Compound no. 11 4248.5 μg/kg.
Blood samples were taken at 10:00, 14:00, 18:00 and 22:00. Plasma was obtained within 20 min after blood sampling and stored at −20C.
CTX and P1NP were measured using RatLaps (CTX-I) EIA and Rat/mouse P1NP EIA (Immunidiagnosticsystems, UK) according to protocols.
Data are presented using GraphPad Prism V9.3.0 as % of baseline as mean+/−SEM and analyzed by 2-way Anova with Sidaks multiple comparisons tests or by unpaired t-test.

In experiment [4] the target is T5, human GIPR. As to conditions: 10 nM ligand for 90 min, then 125I-GIP(1-42) labelling; FIG. 3.
Experimental: (§2) COS-7 cells were cultured at 10% CO2 and 37° C. in Dulbecco's Modified Eagle Medium (DMEM) 1885 supplemented with 10% fetal bovine serum (FBS), 2 mM glutamine, 180 units/ml penicillin, and 45 g/ml streptomycin.
The following day, the media of the cells were changed to DMEM supplemented 2% FBS and preincubated either with or without 10 nM ligand for 90 min. […] After incubation, the cells were washed twice in 100 μl per well ice-cold binding buffer and lysed using 175 μl per well of 200 mM NaOH with 1% SDS for 30 min. The samples were analyzed by the Wizard Gamme Counter (PerkinElmer, Waltham, MA). Data was analyzed by comparing the counts measured from the ligand preincubated and non-preincubated cells.

T2 sequence (P43220 24-463): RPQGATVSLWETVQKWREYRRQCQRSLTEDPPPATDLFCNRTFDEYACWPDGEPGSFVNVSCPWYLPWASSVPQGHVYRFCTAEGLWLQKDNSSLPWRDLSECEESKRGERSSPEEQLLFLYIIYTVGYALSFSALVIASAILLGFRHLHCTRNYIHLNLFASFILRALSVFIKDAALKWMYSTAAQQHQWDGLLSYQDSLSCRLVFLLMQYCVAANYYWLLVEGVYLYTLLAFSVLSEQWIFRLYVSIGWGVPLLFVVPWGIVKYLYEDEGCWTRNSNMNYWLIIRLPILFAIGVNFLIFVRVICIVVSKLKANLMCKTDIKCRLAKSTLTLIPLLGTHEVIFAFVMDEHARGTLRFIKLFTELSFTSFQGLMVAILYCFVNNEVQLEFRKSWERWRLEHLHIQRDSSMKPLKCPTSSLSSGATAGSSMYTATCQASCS
Experimental for human GLP-2R: as §2
The next day the assay was initiated by washing with HEPES buffered saline (HBS) and followed by an incubation step with assay buffer (HBS added 1 mM isobutyl-1-methylxanthine (IBMX)) for 30 min at 37° C. The ligands were then added and incubated for an additional 30 min at 37° C. After ligand incubation, the HitHunter® CAMP assay (Eurofins DiscoverX, Fremont, 150 USA) was carried out according to the manufacturer's instructions. Luminescence was measured by PerkinElmer™ EnVision 2014 Multilabel Reader (PerkinElmer, Waltham, MA). The potencies (EC50 values) were determined by nonlinear regression using GraphPad Prism 9 (San Diego, California, USA). Sigmoid curves were fitted logistically. The efficacies (Emax values) were determined by normalization to the highest concentration applied of the endogenous ligand for each receptor.

In the case of “H-Aib-DGTFISDY-K(yglu-C10)-T-Aib-LDNLAARDFINWLIQTKITGNDWKHNITQ-OH [Compound no. 54]”, the “Efficacy GLP-2R” value at human GLP-2R turned out to be 87. The “Efficacy GLP-1R” value at human GLP-1R was 8. At rat GIPR, the “rGIPR Efficacy (%)” value amounted to 110.3%. Also, at rat GLP-2R, the “rGLP-2R Efficacy (%)” value was found to be 108.0%. For the same substance, in the experiment on macaque GIPR, the “maGIPR Efficacy (%)” value is recorded as 71.8% and the “maGIPR pEC50” value came out at 7.7. Also, the “Efficacy GIPR” value on human GIPR [1] came out at 86.

Take “H-Aib-DGTFISDY-K(γGlu-C10)-TILDKLAARDFIEWLIATKITK-OH [Compound no. 31]”: the “Efficacy GLP-2R” value at human GLP-2R came out at 90. For the same substance, the “Efficacy GLP-1R” value on human GLP-1R came out at 6. The “AUC ± SD” value at human SNAP-GIPR and on human GIPR [2] was 0 each time. Besides, the “rGIPR Efficacy (%)” value on rat GIPR is reported as 85.0%. Moreover, at rat GLP-2R, the “rGLP-2R Efficacy (%)” value amounted to 86.3%. In addition, on human GIPR [1], the “Efficacy GIPR” value was 89.

In the case of “H-Aib-DGTFISDY-K(γGlu-C16)-T-Aib-LDALAARDFIEWLIQTKITK-OH [Compound no. 33]”, the “Efficacy GLP-2R” value on human GLP-2R is recorded as 97. In addition, at human SNAP-GIPR, the “AUC ± SD” value is 27 ± 2 and the “Emax ± SD (%)” value is given as 25 ± 3%. Further, the “rGIPR Efficacy (%)” value at rat GIPR was 98.7%. At rat GLP-2R, the “rGLP-2R Efficacy (%)” value is 96.3%. Further, the “Efficacy GIPR” value at human GIPR [1] is 101. Moreover, at human GIPR [2], the “AUC ± SD” value came to 23 ± 12 and the “Emax ± SD (%)” value is given as 9 ± 5%.

For “H-Aib-DGTFISDY-K(γGlu-C16)-TILDNLAARDFINWLIQTKITK-OH [Compound no. 11]”, the “Efficacy GLP-1R” value at human GLP-1R is 11. In addition, on human SNAP-GIPR, the “AUC ± SD” value is listed as 19 ± 2 and the “Emax ± SD (%)” value is listed as 24 ± 6%. Moreover, the “formation marker P1NP, % of baseline” value in experiment [3] (female rats, SC 4248.5 μg/kg, time 14:00 and 18:00, FIG. 2B) is “increase”. For the same substance, in experiment [3] (female rats, SC 4248.5 μg/kg, time point 14:00, p-value=0.08, FIG. 2A), the “resorption marker CTX, % of baseline” value is reported as “reduced (ns) increase”. Besides, in [3] (rat, in vivo, sc), the “CTX AUC” value is given as “tendency towards a reduction”. The “rGIPR Efficacy (%)” value on rat GIPR is recorded as 107.0%. For the same substance, the “rGLP-2R Efficacy (%)” value at rat GLP-2R worked out at 104.0%. Also, in the experiment on macaque GIPR, the “maGIPR Efficacy (%)” value is given as 92.5% and the “maGIPR pEC50” value is listed as 9.0. Besides, the “Efficacy GIPR” value on human GIPR [1] is 115. Moreover, on human GIPR [2], the “AUC ± SD” value is 61 ± 14 and the “Emax ± SD (%)” value was 41 ± 6%.

For “YAEGTFISDYSIAMDKIHQQDFVNWLLAQKGKKNDWKHNITQ [hGIP, reference compound]”, the entries for the “AUC ± SD” value on human SNAP-GIPR and at human GIPR [2] were 204 ± 3 and 223 ± 16, respectively. In addition, the “GIPR expression at the cell surface following ligand preincubation” value at human GIPR [4] is listed as “downregulation of the GIPR from the cell surface”.
